The text below walks through data of PMC6021111, “Murine leukemia virus p12 tethers the capsid-containing pre-integration complex to chromatin by binding directly to host nucleosomes in mitosis” (PLoS Pathogens, 2018).

For assay [1], the system named is GST-p12_M63I phosphorylation in 293T cells. As to the kind of experiment: Kinase inhibition, GST-p12_M63I phosphorylation (PQ/SR). In kind it is cell-based. The method, then:
(§1) Glycogen synthase kinase 3 (GSK3) and cyclin-dependent kinase 5 (CDK5) were predicted to phosphorylate Mo-MLV p12 on S61, by the NetPhos 3.1 kinase prediction algorithm. […] These drugs were tested in our biochemical assays for their ability to reduce GST-p12_M63I phosphorylation and chromatin association. In our assays, cells transiently-expressing GST-p12_M63I were cultured in media containing nocodazole overnight, prior to the addition of the kinase inhibitors. […] After removal of the drugs, cells were immediately washed and lysed for glutathione-sepharose bead pull-down assays. The eluates from the beads were analysed by SDS-PAGE followed by sequential staining with PQ and SR dyes to quantify the phosphorylation levels of GST-p12_M63I. LiCl treatment had little effect on GST-p12_M63I phosphorylation (Fig 7A, lane 2). […] To correlate GST-p12_M63I phosphorylation with its ability to interact with chromatin, we quantified the amounts of H2B in the pull-down eluates by immunoblotting. […] The short period of kinase inhibition used in our assays, may have limited the effects observed on GST-p12_M63I phosphorylation.
(§2) GST-p12 proteins were expressed in 293T cells from pCAGGS/GST-derived plasmids by transient transfection using Turbofect (Thermo Fisher Scientific). Approximately 24 h after transfection, cells were changed into fresh media containing either 400 ng/ml nocodazole (Sigma) or 2 μg/ml aphidicolin (Sigma) and incubated overnight at 37°C. The synchronisation of the cell cultures after drug treatment was assessed by propidium iodide staining and cell cycle phase analysis by flow cytometry. Cells to be used in pull down assays were washed and lysed in 20 mM Tris pH 8.0, 300 mM NaCl, 1 mM EDTA, 10% Glycerol, 1% Triton X-100, protease inhibitors (Roche), phosphatase inhibitors (Merck). Lysis was facilitated by passing the lysates through a 19-gauge needle x7 and sonication, x7 pulses, 30 s ON and 30 s OFF, in an ice bath (Decon FS100). […] ProQ diamond and Sypro ruby staining (Thermo Fisher Scientific) of gels was visualised and quantified on a ChemiDoc imaging system (Bio-Rad). […]

Assay [2] has as its system H2B precipitation with GST-p12_M63I, 293T cells. As to the kind of experiment: Kinase inhibition, H2B pull-down with GST-p12_M63I. In kind it is cell-based. Conditions: 3.5 h with nocodazole and 10 μM MG132, immunoblot. On the procedure: as §1, §2
In assay [3] the test system is Glycogen synthase kinase 3 (GSK3). Conditions: cited from earlier work.
Assay [4] has as its system GST-p12_WT. The assay is described as follows: SILAC-MS of proteins enriched with GST-p12_WT relative to GST. The assay is classed as binding, Mo-MLV. To be noted: for SDs from the mean: log2(GST-p12_WT, Heavy/GST, Light). An excerpt:
To test whether GST-p12 was acting like the p12 region of Gag, we used a global proteomic approach based on stable isotope labelling by amino acids in cell culture (SILAC)-mass spectrometry (MS) to look for host proteins that interact with GST-p12 [35, 36]. A schematic diagram of the workflow is illustrated in Fig 4A. Briefly, GST, GST-p12_mut14 and GST-p12_WT were transiently-expressed in 293T cells cultured in light (R0/K0), medium (R6/K4) and heavy (R10/K8) SILAC media, respectively. Next, lysates of nocodazole treated transfected cells were prepared, normalised and used for parallel pull-down assays with glutathione-sepharose beads. The eluates from the beads were then pooled in a 1:1:1 ratio and subjected to LC-MS/MS analysis. The experiment was performed using biological replicates to test reproducibility of the mass-spec hits. The pull-down assays for this experiment were performed using mitotic cell lysates to facilitate identification of any potential chromatin interactions that were previously missed.
After removal of obvious contaminants (e.g. keratin) and non-quantified hits, 948 and 879 proteins were identified in replicates 1 and 2 (R1 and R2) of the experiment respectively (the false discovery rate (FDR) was set at 5%). To select proteins enriched in the heavy-labelled (H) GST-p12_WT sample relative to the light-labelled (L) GST sample, we compared the log2(H/L) silac ratios of the mass-spectrometry hits. When plotted as a frequency distribution, the log2(H/L) ratios of each replicate fitted well to a normal distribution curve (R^2 ≥ 0.98), allowing the mean and standard deviation to be accurately estimated (Fig 4B). In this experiment, contaminants/non-specifically bound cellular proteins were assumed to cluster around the mean of the distribution. […] Twenty one such proteins were identified in R1 and 22 identified in R2 (Fig 4B Venn diagram). […] These proteins were then ranked based on normalised abundance in the group. In mass-spectrometry analysis, larger proteins are in general assigned higher scores. Therefore, to control for protein size, we divided the number of peptide spectral matches identified for each protein with its length and then normalised the values across the group (Fig 4C and 4D). When ranked this way, the clathrin heavy chain (CLTC), clathrin interactor 1 (CLINT1) and NEDD4-like E3 ubiquitin ligase (WWP2) were identified as the top three hits. […] The function of clathrin in MLV infection is unclear. […] Thus, clathrin binding may be relevant to the early stages of MLV replication and should be investigated further.
For SILAC-MS experiments, 293T cells were grown is media containing light (R0K0, ^12C-Arginine and ^12C-Lysine), medium (R6K4, ^13C-Arginine and Lysine-4,4,5,5-d4) or heavy (R10K8, ^13C+^15N-Arginine and ^13C+^15N-Lysine) versions of L-Arginine and L-Lysine amino acids (Pierce) for a minimum of 6 doublings before transient expression of GST-p12 proteins. After performing the glutathione-sepharose pull-down assays equivalent volumes of the beads eluates were pooled and submitted to the Bristol University Proteomics Facility for RP nano-LC-MS/MS analysis. This analysis was performed on an LTQ-Orbitrap Velos mass spectrometer in line with a Dionex Ultimate 3000 nanoHPLC system as described in [53].
Supplementary file ppat.1007117.s005.xlsx: S1 Table Results from the first SILAC-MS analysis. GST, Mo-MLV GST-p12_mut14 or GST-p12_WT were transiently-expressed in 293T cells cultured in light (R0/K0), medium (R6/K4) and heavy (R10/K8) SILAC media, respectively. Mitotic cell lysates were subsequently used for glutathione-sepharose bead pull-down assays. Bead eluates were pooled in a 1:1:1 ratio and then analysed by LC-MS/MS. […] (XLSX) Click here for additional data file.

Assay [5] concerns nucleosome binding to immobilised p12 CTD peptides. As to the kind of experiment: BLI competition, nucleosome binding to immobilised p12 CTD peptides. Conditions: soluble hCBS 100 μM. On the procedure:
To identify whether p12 binds to the same nucleosomal docking site as the CBS from PFV Gag, we then tested the ability of p12 CTD peptides to block the binding of nucleosomal arrays to hCBS and vice versa (Fig 9E and 9F).
The binding of PFV hCBS and p12 CTD peptides to recombinant H3.3 poly-nucleosomes (Active Motif) was measured using biolayer interferometry on an Octet RED system (Pall ForteBio Corp). The peptides were synthesised with a N-terminal biotin tag and GGGG linker. The Mo-MLV, FeLV and GaLV p12 CTD peptide sequences used are highlighted in bold in Fig 5C. A negative control was included that contained an R66A change in the Mo-MLV p12_M63I CTD peptide. Mo-MLV phos p12_M63I CTD was also synthesised with a phosphorylated S61 residue. The hCBS (positive control) sequence used corresponds to the CBS of PFV Gag ([…]). The biotinylated peptides were loaded onto streptavidin biosensors (Pall ForteBio Corp) at 0.5 μg/ml for 120 s in 10 mM HEPES pH 7.5, 150 mM NaCl, 0.005% (v/v) Tween 20. Following a buffer wash, the biosensors were incubated with serially-diluted nucleosome preparations (~0.5–250 nM) for 900–5400 s to measure association. Experiments were performed at 25°C and sample plates were agitated at 1000 rpm. Equilibrium binding amplitudes were determined by exponential least squares curve fitting of the association phase. The estimated binding amplitudes were then plotted against approximate nucleosome concentrations on GraphPad Prism 7. Equilibrium binding constant (Kd) and maximum specific binding (Bmax) were calculated by fitting the data to a non-linear regression model. Experiments were performed at least in duplicate and the data pooled for fitting. For competition assays, soluble non-biotin tagged peptides were added to the nucleosomal arrays at 100 μM to inhibit nucleosome binding prior to recording BLI measurements with biotinylated peptide immobilised on sensor probes. The non-biotin tagged peptide sequences were: hCBS—[…]; hCBS_L539A/R540A - […]; p12_WT—[…]; p12_R66A - […].

As to `[Cl-].[Li+]` [LiCl], the “effect on GST-p12_M63I phosphorylation” value in assay [1] (LiCl 40 mM, 3.5 h with nocodazole and 10 μM MG132) was “little effect”. Moreover, in assay [2] (LiCl 40 mM), the “effect on chromatin pull down” value is reported as “no significant effect”. In addition, the “inhibition of GSK3” value in assay [3] was “shown to inhibit GSK3”.

Take `CC[C@H](CO)Nc1nc(NCc2ccccc2)c2ncn(C(C)C)c2n1` [roscovitine]: the “reduction of GST-p12_M63I phosphorylation by kinase inhibitor” value in assay [1] (3.5 h with nocodazole and 10 μM MG132, LiCl 40 mM, roscovitine 75 μM, kenpaullone 40 μM) is ~ 1.5 fold. Further, in assay [2] (roscovitine 75 μM, kenpaullone 40 μM), the “reduction of H2B precipitation by kinase inhibitor” value is listed as ~ 1.5 fold.

As for “Clathrin heavy chain 1: clathrin heavy chain, Q00610”, in assay [4] (Replicate 1), the “Normalised (PSMs/Length)” value was found to be 49.383, the PSMs is given as 90, the PSMs/Length was found to be 0.05373 and the “SDs from the mean” value was 7.774. Moreover, in assay [4] (Replicate 2), the “Normalised (PSMs/Length)” value is 51.3165, the PSMs was determined as 96, the PSMs/Length was determined as 0.05731 and the “SDs from the mean” value was found to be 7.772.

As for “Inner centromere protein: cDNA FLJ31633, highly similar to this protein (fragment), B3KPD3”, in assay [4] (Replicate 1), the “Normalised (PSMs/Length)” value is 2.444, the PSMs was determined as 2, the PSMs/Length is given as 0.00266 and the “SDs from the mean” value worked out at 6.525. In addition, in assay [4] (Replicate 2), the “Normalised (PSMs/Length)” value was determined as 1.191, the PSMs came to 1, the PSMs/Length stood at 0.00133 and the “SDs from the mean” value is given as 13.4521.

As to “NEDD4-like E3 ubiquitin-protein ligase WWP2: O00308”, in assay [4] (Replicate 1), the “Normalised (PSMs/Length)” value is 9.508, the PSMs is given as 9 and the PSMs/Length is listed as 0.01034. For the same molecule, in assay [4] (Replicate 2), the “Normalised (PSMs/Length)” value was 9.262, the PSMs stood at 9, the PSMs/Length was determined as 0.01034 and the “SDs from the mean” value came out at 11.5377.

With “NQGGYNLRPRTYQP [soluble hCBS, soluble non-biotin tagged hCBS peptide]”, in assay [5], the “competition with binding of immobilised FeLV to nucleosomal arrays” value is recorded as “could compete with the binding”, the “competition with binding of immobilised GaLV to nucleosomal arrays” value is “could compete with the binding”, the “competition with binding of immobilised Mo-MLV p12_M63I to nucleosomal arrays” value is recorded as “could compete with the binding” and the “competition with binding of immobilised Mo-MLV p12_WT to nucleosomal arrays” value is “could compete with the binding”.

Take “Phosphatidylinositol-4-phosphate 3-kinase C2domain-containing alpha polypeptide: cDNA FLJ53905, highly similar to this protein, B4DG55”: in assay [4] (Replicate 1), the “Normalised (PSMs/Length)” value turned out to be 2.815, the PSMs is on record as 4 and the PSMs/Length is given as 0.003063. Also, in assay [4] (Replicate 2), the “Normalised (PSMs/Length)” value is reported as 6.17, the PSMs was 9, the PSMs/Length turned out to be 0.006891 and the “SDs from the mean” value was found to be 6.685.

For “Protein transport protein Sec16A: F1T0I1”, in assay [4] (Replicate 1), the “Normalised (PSMs/Length)” value is reported as 1.969, the PSMs was found to be 5, the PSMs/Length came to 0.002142 and the “SDs from the mean” value is given as 3.112. In assay [4] (Replicate 2), the “Normalised (PSMs/Length)” value is 1.918, the PSMs is recorded as 5, the PSMs/Length was found to be 0.002142 and the “SDs from the mean” value came out at 2.575.
